# In US8906430B2, “Use of hypericum perforatum extracts in the treatment of neuropathic pain” (Aboca S.p.A. Societa' Agricola, priority 2008, dated 2014):
# Legend:
# neuropathic pain = experiment: Experimental models of neuropathic pain (summary statements); type: in vivo, rodents; details: for Ability to reduce neuropathic pain: isolated phloroglucinol derivatives
# Method: The studies were conducted on rodents, which have always constituted a good animal model to reproduce the characteristics of human pain symptoms and predict possible remedies.
# [1] = tested on: monosodium iodoacetate-induced osteoarthritis pain; experiment: Pain caused by monosodium iodoacetate-induced osteoarthritis of the knee, rat paw pressure test; type: in vivo; details: MIA, 0.11 mg/kg p.o.
# Description: The reduction in the pain threshold was induced by a single administration of monoiodoacetate (MIA) into the […] of the rat (Ref. 27). [table]
# [2] = tested on: oxaliplatin-induced hyperalgesia; experiment: Oxaliplatin-induced hyperalgesia, rat paw pressure test; type: in vivo; details: oxaliplatin i.p., hypericin 0.11 mg/kg + CMC p.o., single administration
# Method: A reduction in the pain threshold was induced by administering oxaliplatin 2.4 mg/kg for 5 consecutive days for a total of 3 weeks. By the end of the treatment period, the pain perception threshold of the rats was statistically lower than that of the controls (Ref. 23). Using the same method as in Example 1, the following results were obtained by administering hypericin at the doses indicated in Table 5.
# [3] = tested on: mononeuropathy induced by ligature of the sciatic nerve; experiment: Right-side mononeuropathy induced by ligature of the sciatic nerve, rat paw pressure test; type: in vivo; set-up: unit not given beside the values; details: 0.11 mg/kg p.o.
# Method: Neuropathic pain is characterised by the development of an altered perception of pain, which is manifested as continuous spontaneous pain and hyperalgesia. In this model, the rats were anaesthetised with chloral hydrate 400 mg/kg i.p. or sodium pentobarbital 40 mg/kg i.p. The sciatic nerve was then exposed at thigh level by retracting the femoral biceps. Proximally to the trifurcation of the sciatic nerve, approx. 7 mm of nerve was released from the membranes and 4 loose ligatures were tied round the nerve, approx. 1 mm apart. In another group of animals an identical incision was made, but without the nerve ligature (sham operation). Neuropathy developed in 14 days. The tests with the potentially analgesic substances were performed on the 14th and 21st days after the operation using the paw pressure test (ref. 24).
# Using the same method as in Example 2, the following results were obtained by administering hypericin at the doses indicated in Table 6.
smiles,measurement,setting,value
CCC(C)C(=O)[C@@]12C(=O)C(CC=C(C)C)=C(O)[C@@](CC=C(C)C)(C[C@H](CC=C(C)C)[C@@]1(C)CCC=C(C)C)C2=O (stereo partly drawn) [adihyperforin],Ability to reduce neuropathic pain,neuropathic pain,unable to reduce neuropathic pain
CC(C)=CCC[C@]1(C)[C@@H](CC=C(C)C)C[C@@]2(CC=C(C)C)C(=O)[C@]1(C(=O)C(C)C)C(=O)C(CC=C(C)C)=C2O [hyperforin],Ability to reduce neuropathic pain,neuropathic pain,unable to reduce neuropathic pain
"Cc1cc(O)c2c(=O)c3c(O)cc(O)c4c5c(O)cc(O)c6c(=O)c7c(O)cc(C)c8c1c2c(c34)c(c78)c65 [HYPERICIN, hypericin]",Rat paw pressure test,[1]; 15 min after treatment,45.9 ± 2.7
same,Rat paw pressure test,[1]; 30 min after treatment,49.7 ± 3.8
same,Rat paw pressure test,[1]; 45 min after treatment,42.8 ± 3.9
same,Rat paw pressure test,[1]; 60 min after treatment,31.7 ± 3.5
same,Rat paw pressure test,[1]; Pre-test,23.4 ± 3.3
same,Pressure on rats' paws,[2]; 3rd week + 15 min,44.1 ± 2.8 g
same,Pressure on rats' paws,[2]; 3rd week + 30 min,55.0 ± 2.2 g
same,Pressure on rats' paws,[2]; 3rd week + 45 min,53.3 ± 2.6 g
same,Pressure on rats' paws,[2]; 3rd week + 60 min,31.3 ± 3.0 g
same,Pressure on rats' paws,[2]; 3rd week Pre-test,32.4 ± 2.0 g
same,Pressure on rats' paws,[2]; Pre-test before all treatments,63.2 ± 3.5 g
same,Activity on neuropathic pain,neuropathic pain; at a dose corresponding to its concentration in freeze-dried extracts,active
same,Rat paw pressure test (Paw),"[3]; paw L, 4 min after treatment",24.8 ± 3.9
same,Rat paw pressure test (Paw),"[3]; paw L, 15 min after treatment",23.8 ± 3.3
same,Rat paw pressure test (Paw),"[3]; paw L, 30 min after treatment",22.7 ± 2.1
same,Rat paw pressure test (Paw),"[3]; paw L, 60 min after treatment",21.5 ± 3.0
same,Rat paw pressure test (Paw),"[3]; paw L, before treatment",21.6 ± 2.7
same,Rat paw pressure test (Paw),"[3]; paw R, 4 min after treatment",41.6 ± 2.7
same,Rat paw pressure test (Paw),"[3]; paw R, 15 min after treatment",28.1 ± 1.2
same,Rat paw pressure test (Paw),"[3]; paw R, 30 min after treatment",43.7 ± 2.0
same,Rat paw pressure test (Paw),"[3]; paw R, 60 min after treatment",25.9 ± 2.2
same,Rat paw pressure test (Paw),"[3]; paw R, before treatment",24.3 ± 4.6
